We go through 34 molecules from patent US20100022509A1, “Inhibitors of MshC and Homologs Thereof, and Methods of Identifying Same” (priority 2006, published 2010).

As usually defined, the IC50 is the concentration that gives 50% inhibition. Low readings indicate greater potency, high ones weaker potency.

In this assay the target is T1, MshC (Mycobacterium tuberculosis, UniProt P9WJM9).
T1 sequence (P9WJM9 1-414): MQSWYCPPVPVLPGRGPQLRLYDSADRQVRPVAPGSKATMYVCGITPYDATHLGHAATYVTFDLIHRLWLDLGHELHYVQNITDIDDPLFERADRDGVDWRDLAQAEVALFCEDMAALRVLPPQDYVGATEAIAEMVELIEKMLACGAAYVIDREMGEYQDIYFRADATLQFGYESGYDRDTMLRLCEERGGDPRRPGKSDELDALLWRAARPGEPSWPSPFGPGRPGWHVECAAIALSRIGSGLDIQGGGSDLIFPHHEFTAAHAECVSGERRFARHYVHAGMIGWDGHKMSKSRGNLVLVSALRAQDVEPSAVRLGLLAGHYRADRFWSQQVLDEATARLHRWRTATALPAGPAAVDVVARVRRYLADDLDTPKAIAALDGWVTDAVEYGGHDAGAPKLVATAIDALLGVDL
The assay can be described thus: biochemical. The format is biochemical, M. tuberculosis.

Read-outs that look alike come from different tables or passages of the source.

`O=C(NCCN1CCCCCC1)c1ccc2c(c1)N(Cc1cccc(Cl)c1)C(=O)c1ccccc1[S+]2[O-]` (stereo not shown) [Inhibitor 83-75]: the “inhibition of MshC in words, 1,3-diaminopropyl residue with remote amino residue capable of protonation” value (“inhibition of MshC in words … of protonation” below) was “measurable inhibition” and the “inhibition of MshC in words, Z is a benzyl moiety bearing one or more halogens” value was “Measurable inhibition”. Also, where the note is “IC50”, the IC50 is around 80 µM. For the same molecule, for the setting “X=S, X=SO, X=SO2”, the “inhibition of MshC in words, compounds grouped by X” value (from here on “inhibition of MshC in words … by X”) is “Significant inhibition”.

Consider `CCCCN(CCCNC(=O)c1ccc2c(c1)N(Cc1cccc(Cl)c1)C(=O)c1ccccc1[S+]2[O-])Cc1ccccc1` (stereo not shown) [Inhibitor 83-76], for which the IC50 (IC50) was at least 3000 µM.

The molecule `CC1CC(C)CN(CCCNC(=O)c2ccc3c(c2)N(Cc2cccc(Cl)c2)C(=O)c2ccccc2S3(=O)=O)C1` (stereo not shown) [Inhibitor 83-77] gave an IC50 (IC50) of 2300 ± 700 µM.

For `O=C(NCCCN1CCCC1)c1ccc2c(c1)N(Cc1cccc(Cl)c1)C(=O)c1ccccc1S2(=O)=O` [Inhibitor 83-78], the “inhibition of MshC in words … of protonation” value is given as “measurable inhibition” and the “inhibition of MshC in words, Z is a benzyl moiety bearing one or more halogens” value is reported as “Measurable inhibition”. Where the note is “IC50”, this molecule yielded an IC50 of around 500 µM. Further, the “inhibition of MshC in words … by X” value (X=S, X=SO, X=SO2) is “Significant inhibition”.

Turning to `O=C(NCCN1CCN(Cc2ccccc2)CC1)c1ccc2c(c1)N(Cc1cccc(Cl)c1)C(=O)c1ccccc1S2(=O)=O` [Inhibitor 83-79], the “inhibition of MshC in words, compounds lacking the basic amino group or with groups in excess of 10 carbons on the remote amino residue” value (shortened to “inhibition of MshC … on the remote amino residue”) was “little or no inhibition”. Also, under “IC50”, the IC50 is above 3000 µM.

Turning to `O=C(NCC1CCN(Cc2ccccc2)CC1)c1ccc2c(c1)N(Cc1cccc(Cl)c1)C(=O)c1ccccc1S2(=O)=O` [Inhibitor 83-80], the IC50 (IC50) is above 3000 µM.

In the case of `CC(C)CN(CCCNC(=O)c1ccc2c(c1)N(Cc1cccc(Cl)c1)C(=O)c1ccccc1S2(=O)=O)CC(C)C` [Inhibitor 83-81], the IC50 (IC50) is above 3000 µM.

Regarding `O=C(NCCCN1CCOCC1)c1ccc2c(c1)N(Cc1cccc(Cl)c1)C(=O)c1ccccc1S2(=O)=O` [Inhibitor 83-82], the IC50 (IC50) was around 3000 µM.

Consider `CCCN(CCC)CCCNC(=O)c1ccc2c(c1)N(Cc1cccc(Cl)c1)C(=O)c1ccccc1S2(=O)=O` [Inhibitor 83-83], for which the “inhibition of MshC in words … of protonation” value is “measurable inhibition” and the “inhibition of MshC in words, Z is a benzyl moiety bearing one or more halogens” value is recorded as “Measurable inhibition”. For the setting “IC50”, inhibition was half-maximal at 980 ± 40 µM (IC50). Besides, for the setting “X=S, X=SO, X=SO2”, the “inhibition of MshC in words … by X” value is “Significant inhibition”.

For the molecule `CN(C)CCCNC(=O)c1ccc2c(c1)N(Cc1ccc(Cl)cc1)C(=O)c1ccccc1[S+]2[O-]` (stereo not shown) [Inhibitor 1028], the “inhibition of MshC in words … of protonation” value is listed as “measurable inhibition”; the “inhibition of MshC in words, Z is a benzyl moiety bearing one or more halogens” value is given as “Measurable inhibition”; the “inhibition of MshC in words … by X” value was “Significant inhibition”. The molecule also gave a half-maximal inhibitory concentration (IC50) (IC50, μM) of 335 ± 15 µM.

`CC1CCCN(CCCNC(=O)c2ccc3c(c2)N(Cc2ccc(F)cc2)C(=O)c2ccccc2[S+]3[O-])C1` (stereo not shown) [Inhibitor 1051]: the “inhibition of MshC in words … of protonation” value was “measurable inhibition” and the “inhibition of MshC in words, Z is a benzyl moiety bearing one or more halogens” value is recorded as “Measurable inhibition”. For the setting “IC50, μM”, this molecule had an IC50 of 710 ± 20 µM. For the same molecule, the “inhibition of MshC in words … by X” value (X=S, X=SO, X=SO2) was “Significant inhibition”.

In the case of `Cc1ccc(C)c(CN2C(=O)c3ccccc3[S+]([O-])c3ccc(C(=O)NCCCN4CCCC4)cc32)c1` (stereo not shown) [Inhibitor 1061], the “inhibition of MshC in words … of protonation” value was “measurable inhibition” and the “inhibition of MshC in words, Z benzyl moiety with methyl groups in the 2,5 positions or unsubstituted” value was “Weak but detectable inhibition”. In addition, the IC50 (IC50, μM) is 1600 ± 300 µM. The “inhibition of MshC in words … by X” value (X=S, X=SO, X=SO2) was “Significant inhibition”.

With `CCCCN(C)CCCNC(=O)c1ccc2c(c1)N(Cc1cc(C)ccc1C)C(=O)c1ccccc1[S+]2[O-]` (stereo not shown) [Inhibitor 1062], the “inhibition of MshC in words … of protonation” value is listed as “measurable inhibition” and the “inhibition of MshC in words, Z benzyl moiety with methyl groups in the 2,5 positions or unsubstituted” value is “Weak but detectable inhibition”. The molecule also had an IC50 (IC50, μM) of around 2500 µM.

`CCN1C(=O)c2ccccc2[S+]([O-])c2ccc(C(=O)NCCCN3CCOCC3)cc21` (stereo not shown) [Inhibitor 1075] displayed an IC50 (IC50, μM) above 3000 µM.

In the case of `CCN1C(=O)c2ccccc2[S+]([O-])c2ccc(C(=O)NCCN3CCCCCC3)cc21` (stereo not shown) [Inhibitor 1081], the IC50 (IC50, μM) was above 3000 µM.

On to `CCC1CCCCN1CCCNC(=O)c1ccc2c(c1)N(Cc1ccccc1F)C(=O)c1ccccc1[S+]2[O-]` (stereo not shown) [Inhibitor 1137], for which the “inhibition of MshC in words … of protonation” value is given as “measurable inhibition” and the “inhibition of MshC in words, Z is a benzyl moiety bearing one or more halogens” value was “Measurable inhibition”. It took 1400 ± 700 µM to reach half-maximal inhibition (IC50, μM) (IC50). In addition, the “inhibition of MshC in words … by X” value (X=S, X=SO, X=SO2) is “Significant inhibition”.

In turn, `CC1CC(C)CN(CCCNC(=O)c2ccc3c(c2)N(Cc2ccccc2F)C(=O)c2ccccc2S3(=O)=O)C1` (stereo not shown) [Inhibitor 1138] returned an IC50 (IC50, μM) above 3000 µM.

Molecule `Cc1ccc(C)c(CN2C(=O)c3ccccc3S(=O)(=O)c3ccc(C(=O)NCCN4CCCCC4)cc32)c1` [Inhibitor 1173] returned an IC50 (IC50, μM) above 2000 µM.

`Cc1ccc(CN2C(=O)c3ccccc3Sc3ccc(C(=O)NCC(C)CN4CCC(C)CC4)cc32)cc1` (stereo not shown) [Inhibitor 1671] gave an IC50 (IC50, μM) above 3000 µM.

With `Cc1ccc(CN2C(=O)c3ccccc3Sc3ccc(C(=O)NCCCN4CC(C)CC(C)C4)cc32)cc1` (stereo not shown) [Inhibitor 1672], the IC50 (IC50, μM) was above 3000 µM.

Molecule `CCN1C(=O)c2ccccc2Sc2ccc(C(=O)NCCCN(CC(C)C)CC(C)C)cc21` [Inhibitor 1751] yielded an IC50 (IC50, μM) above 3000 µM.

Where the note is “IC50, μM”, `CCN1C(=O)c2ccccc2Sc2ccc(C(=O)NCCCN3CCCCC3)cc21` [Inhibitor 1754] gave an IC50 of around 2000 µM. The “inhibition of MshC in words … by X” value (X=S, X=SO, X=SO2) was “Significant inhibition”.

With `O=C(NCCCN1CCCCC1)c1ccc2c(c1)N(Cc1cccc(Cl)c1)C(=O)c1ccccc1S2` [Inhibitor 1776], the “inhibition of MshC in words … of protonation” value is reported as “measurable inhibition” and the “inhibition of MshC in words, Z is a benzyl moiety bearing one or more halogens” value is given as “Measurable inhibition”. Besides, it took 320 ± 50 µM to reach half-maximal inhibition (IC50, μM) (IC50). The “inhibition of MshC in words … by X” value (X=S, X=SO, X=SO2) is “Significant inhibition”.

Take `O=C(NCCCN1CCCC1)c1ccc2c(c1)N(Cc1cccc(Cl)c1)C(=O)c1ccccc1S2` [Inhibitor 1779]: the “inhibition of MshC in words … of protonation” value is on record as “measurable inhibition” and the “inhibition of MshC in words, Z is a benzyl moiety bearing one or more halogens” value is listed as “Measurable inhibition”. Under “IC50, μM”, this molecule showed an IC50 of 135 ± 30 µM. Also, the “inhibition of MshC in words … by X” value (X=S, X=SO, X=SO2) is “Significant inhibition”.

In turn, `O=C(NCc1cccs1)c1ccc2c(c1)N(Cc1cccc(Cl)c1)C(=O)c1ccccc1S2` [Inhibitor 1781] registered an IC50 (IC50, μM) above 3000 µM.

Consider `CCC1CCCCN1CCNC(=O)c1ccc2c(c1)N(Cc1ccc(F)cc1Cl)C(=O)c1ccccc1S2` (stereo not shown) [Inhibitor 1806], for which the “inhibition of MshC in words, Z is a benzyl moiety bearing one or more halogens” value is given as “Measurable inhibition”. The same molecule returned an IC50 (IC50, μM) of around 750 µM. The “inhibition of MshC in words … by X” value (X=S, X=SO, X=SO2) is listed as “Significant inhibition”.

With `CN(CCCNC(=O)c1ccc2c(c1)N(Cc1ccccc1Cl)C(=O)c1ccccc1S2)c1ccccc1` [Inhibitor 1920], the “inhibition of MshC … on the remote amino residue” value is “little or no inhibition”. Where the note is “IC50, μM”, this molecule yielded an IC50 above 3000 µM.

Turning to `O=C(NCCCN1CCOCC1)c1ccc2c(c1)N(Cc1cccc(Cl)c1)C(=O)c1ccccc1S2` [Inhibitor 1937], the “inhibition of MshC in words … of protonation” value was “measurable inhibition” and the “inhibition of MshC in words, Z is a benzyl moiety bearing one or more halogens” value is reported as “Measurable inhibition”. Moreover, the IC50 (IC50, μM) is 780 ± 120 µM. Further, the “inhibition of MshC in words … by X” value (X=S, X=SO, X=SO2) is “Significant inhibition”.

`CN(CCCNC(=O)c1ccc2c(c1)N(Cc1cccc(Cl)c1)C(=O)c1ccccc1[S+]2[O-])C1CCCCC1` (stereo not shown) [Inhibitor 1938]: the “inhibition of MshC in words … of protonation” value is reported as “measurable inhibition” and the “inhibition of MshC in words, Z is a benzyl moiety bearing one or more halogens” value was “Measurable inhibition”. Also, inhibition (IC50, μM) was half-maximal at 102 ± 4 µM (IC50). The “inhibition of MshC in words … by X” value (X=S, X=SO, X=SO2) was “Significant inhibition”.

As for `CCOCCCNC(=O)c1ccc2c(c1)N(Cc1cccc(Cl)c1)C(=O)c1ccccc1[S+]2[O-]` (stereo not shown) [Inhibitor 1939], the “inhibition of MshC … on the remote amino residue” value is on record as “little or no inhibition”. Further, the IC50 (IC50, μM) amounted to 3200 ± 1000 µM.

Turning to `CCCCN(CCCNC(=O)c1ccc2c(c1)N(Cc1cccc(Cl)c1)C(=O)c1ccccc1[S+]2[O-])Cc1ccccc1` (stereo not shown) [Inhibitor 1940], the “inhibition of MshC … on the remote amino residue” value is on record as “little or no inhibition”. For the same molecule, under “IC50, μM”, the half-maximal inhibitory concentration (IC50) is above 3000 µM.

Regarding `CN(CCc1ccccc1)C(=O)c1ccc2c(c1)N(Cc1cccc(Cl)c1)C(=O)c1ccccc1S2(=O)=O` [Inhibitor 1943], the IC50 (IC50, μM) is above 3000 µM.

As to `O=C(NCC1CCCN1)c1ccc2c(c1)N(Cc1cccc(Cl)c1)C(=O)c1ccccc1S2(=O)=O` (stereo not shown) [Inhibitor 1947], the “inhibition of MshC in words, Z is a benzyl moiety bearing one or more halogens” value is “Measurable inhibition” and the “inhibition of MshC in words … by X” value is given as “Significant inhibition”. Further, the 50% inhibitory concentration (IC50) (IC50, μM) is 2300 ± 300 µM.

With `O=C(NCCCN1CCC(Cc2ccccc2)CC1)c1ccc2c(c1)N(Cc1cccc(Cl)c1)C(=O)c1ccccc1S2(=O)=O` [Inhibitor 1949], the “inhibition of MshC … on the remote amino residue” value is on record as “little or no inhibition”. Moreover, the IC50 (IC50, μM) was above 3000 µM.
